The values that follow come from ChEMBL document CHEMBL5029152, “Discovery of Highly Potent and Selective IRAK1 Degraders to Probe Scaffolding Functions of IRAK1 in ABC DLBCL” (J Med Chem, 2021).

Active and inactive are the calls of the source. The rule behind the calls is not given here.

Experiment [1] deals with T1, Interleukin-1 receptor-associated kinase 4 (Homo sapiens, UniProt Q9NWZ3).
T1 sequence (Q9NWZ3 whole entry): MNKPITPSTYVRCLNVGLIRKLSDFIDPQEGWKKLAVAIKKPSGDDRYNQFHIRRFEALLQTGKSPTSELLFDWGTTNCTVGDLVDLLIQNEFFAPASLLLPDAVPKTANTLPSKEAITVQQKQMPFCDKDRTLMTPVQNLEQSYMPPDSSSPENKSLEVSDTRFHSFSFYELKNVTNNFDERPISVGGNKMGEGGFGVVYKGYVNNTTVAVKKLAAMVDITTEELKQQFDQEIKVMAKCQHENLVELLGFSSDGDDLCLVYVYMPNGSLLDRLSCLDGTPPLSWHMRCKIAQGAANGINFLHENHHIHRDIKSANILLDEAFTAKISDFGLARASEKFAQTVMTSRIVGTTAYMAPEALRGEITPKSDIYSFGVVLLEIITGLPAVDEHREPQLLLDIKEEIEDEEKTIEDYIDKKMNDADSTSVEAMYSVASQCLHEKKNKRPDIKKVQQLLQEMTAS
The experiment can be described thus: Inhibition of full length human N-terminal GST-fusion tagged IRAK4 expressed in baculovirus expression system using FAM-labelled peptide as substrate preincubated for 10 mins followed by substrate addition and further incubated for 1 hr in presence of ATP at Km concentration by caliper mobility shift assay.

A further experiment has as its system OCI-Ly10. The experiment can be described thus: Cytotoxicity against human OCILY10 cells assessed as reduction in cell viability measured after 12 days by CellTiter-Glo assay. It is filed as functional. Conditions: time 12 day.
Experiment [2] concerns the target von Hippel-Lindau disease tumor suppressor/Interleukin-1 receptor-associated kinase 1 (Homo sapiens, UniProt P51617+P40337). Nature of the experiment: Protac activity at IRAK1/VHL E3 ligase in HEK293T cells assessed as induction of IRAK1 degradation at 1 uM measured after 24 hrsin presence of VH298 by Western blot analysis. It is filed as cell-based. Conditions: time 24.0 hrs.

Sequence of von Hippel-Lindau disease tumor suppressor/Interleukin-1 receptor-associated kinase 1 (P40337 whole entry, looked up): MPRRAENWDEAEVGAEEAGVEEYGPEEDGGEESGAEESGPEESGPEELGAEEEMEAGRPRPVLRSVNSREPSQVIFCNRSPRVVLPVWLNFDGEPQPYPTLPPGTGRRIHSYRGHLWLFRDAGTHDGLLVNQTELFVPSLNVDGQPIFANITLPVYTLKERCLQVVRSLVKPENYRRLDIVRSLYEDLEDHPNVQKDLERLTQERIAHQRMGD
Sequence of von Hippel-Lindau disease tumor suppressor/Interleukin-1 receptor-associated kinase 1 (P51617 whole entry, looked up): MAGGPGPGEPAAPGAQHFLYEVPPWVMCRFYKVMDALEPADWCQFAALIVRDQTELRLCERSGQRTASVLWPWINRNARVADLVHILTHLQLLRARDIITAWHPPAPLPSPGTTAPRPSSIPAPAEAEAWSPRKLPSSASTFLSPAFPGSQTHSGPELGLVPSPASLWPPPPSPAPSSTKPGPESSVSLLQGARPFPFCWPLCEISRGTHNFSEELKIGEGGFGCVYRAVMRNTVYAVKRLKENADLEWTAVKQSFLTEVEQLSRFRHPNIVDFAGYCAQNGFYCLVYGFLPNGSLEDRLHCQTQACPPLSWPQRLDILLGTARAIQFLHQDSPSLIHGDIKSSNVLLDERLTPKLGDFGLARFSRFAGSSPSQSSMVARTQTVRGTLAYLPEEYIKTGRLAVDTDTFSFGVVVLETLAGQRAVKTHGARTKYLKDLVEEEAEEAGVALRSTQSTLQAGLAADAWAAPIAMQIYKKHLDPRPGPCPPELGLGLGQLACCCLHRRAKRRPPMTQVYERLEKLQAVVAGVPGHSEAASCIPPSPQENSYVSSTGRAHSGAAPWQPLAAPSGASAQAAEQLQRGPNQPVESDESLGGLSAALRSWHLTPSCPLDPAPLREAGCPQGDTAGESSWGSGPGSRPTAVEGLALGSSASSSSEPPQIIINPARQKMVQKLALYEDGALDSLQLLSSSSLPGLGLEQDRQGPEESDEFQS

`COc1cc(N2CCC(OCC(=O)N[C@H](C(=O)N3C[C@H](O)C[C@H]3C(=O)N[C@@H](C)c3ccc(-c4scnc4C)cc3)C(C)(C)C)CC2)ccc1NC(=O)c1cccc(-c2ccn[nH]2)n1`: in experiment [1], the IC50 – broadly, the midpoint of a concentration-inhibition curve – is 443 nM. The Activity in the experiment with OCI-Ly10 is on record as 170 nM. For the same compound, in experiment [2], the result was inactive.
